We go through 21 compounds from US8940722B2, “Compounds for modulation of orphan nuclear receptor RAR-related orphan receptor-gamma (RORγ, NR1F3) activity and for the treatment of chronic inflammatory and autoimmune disease” (Phenex Pharmaceuticals AG, priority 2010, dated 2015).

Experiment [1] concerns the target T1, RORγ ligand binding domain (LBD) (Homo sapiens, UniProt P51449).
T1 construct: made in house; host or cells: E. coli BL-21 (BL3), vector pDEST15
T1 sequence (P51449 269-508 limits assumed): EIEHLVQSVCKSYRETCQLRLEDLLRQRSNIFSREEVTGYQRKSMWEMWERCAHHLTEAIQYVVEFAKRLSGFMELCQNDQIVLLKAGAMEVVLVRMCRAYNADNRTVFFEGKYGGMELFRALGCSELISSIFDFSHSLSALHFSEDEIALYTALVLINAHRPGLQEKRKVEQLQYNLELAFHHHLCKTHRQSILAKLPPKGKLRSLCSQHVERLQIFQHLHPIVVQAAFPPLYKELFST
The experiment is described as follows: TR-FRET Activity Assay (RORγ-LBD / coactivator peptide interaction). As to conditions: Table 2; read-out: RORγ activity in the TR-FRET Activity Assay (IC50 FRET), Group. It is filed as biochemical. From the text:
This method measures the ability of putative ligands to modulate the interaction between the purified bacterial expressed RORγ ligand binding domain (LBD) and synthetic N-terminally biotinylated peptides which are derived from nuclear receptor coactivator proteins such as but not limited to SRC1 (NcoA1), SRC2 (NcoA2, TIF2), SRC3 (NcoA3), PGC1α, PGC1β, CBP, GRIP1, TRAP220, RIP140.
The ligand-binding domain (LBD) of RORγ was expressed as fusion protein with GST in […] cells using the vector pDEST15. Cells were lysed by lysozyme-treatment and sonication, and the fusion proteins purified over glutathione sepharose (Pharmacia) according to the manufacturers instructions. For screening of compounds for their influence on the RORγ-peptide interaction, the LANCE technology (Perkin Elmer) was applied. This method relies on the binding dependent energy transfer from a donor to an acceptor fluorophor attached to the binding partner of interest. For ease of handling and reduction of background from compound fluorescence LANCE technology makes use of generic fluorophore labels and time resolved detection assays were done in a final volume of 25 μL in a 384 well plate, in a Tris-based buffer system (20 mM Tris-HCl pH6.8; 60 mM KCl, 1 mM DTT; 5 mM MgCl2; 35 ng/μL BSA), containing 20-60 ng/well recombinantly expressed RORγ-LBD fused to GST, 200-600 nM N-terminally biotinylated peptide, 200 ng/well Streptavidin-xIAPC conjugate (Prozyme) and 6-10 ng/well Eu W1024—antiGST (Perkin Elmer). DMSO content of the samples was kept at 1%.
After generation of the Tris-based buffer system, the potentially RORγ modulating ligands were diluted. […] The LANCE signal was detected by a Perkin Elmer EnVision™ Multilabel Counter. The results were visualized by plotting the ratio between the emitted light at 665 nm and 615 nm. […] Ligands that promote the complex formation induce a concentration-dependent increase in time-resolved fluorescent signal.
To assess the antagonistic potential of the compounds, IC50 values were determined using a Ligand Sensing Assay based on Time-resolved Fluorescence Energy Transfer (TR-FRET) as described above. The normalised TR-FRET assay values, using the following equation: 1000*665 nm measurement value/615 nm measurement value, were transferred to the program GraphPad Prism to generate graphs and dose response curves using the following equation: • Equation: Sigmoidal dose-response (variable slope) Y=Bottom+(Top−Bottom)/(1+10^((Log EC50−X)*HillSlope))
This is identical to the “four parameter logistic equation”. The IC50 values are calculated using this equation.

In experiment [2] the test system is activated human PBMCs. The experiment is described as follows: PBMC stimulation and cytokine release assay. It is filed as cell-based. As for the experimental part:
Cryopreserved human PBMCs were purchased from Cellular Technology Ltd. thawed and counted as outlined in the supplier's protocol using CTL-anti-Aggregate-Wash-Supplement. Cells were washed and plated in CTL's serum free medium to −10^5 cells/well in anti-human CD3 coated 96 well T-cell activation plates (BD; Cat. No: 354725) together with anti-human CD28 antibody (BD; Cat. No: 555725) to a final concentration of 2 μg/mL. Samples were either treated with vehicle (0.1%) or small chemical molecules of the indicated concentrations.
For end point determination of cytokine production the cells were incubated for 72 h at 37° C. and 5% CO2. Supernatants were harvested and stored frozen at −80° C. until further processing. The cells were assayed for viability by incubation for 15 min with fluoresceindiacetate (5 μg/mL in PBS) and subsequent measurement of fluorescein (485 nm/535 nm).
Cytokine concentrations in the supernatants were determined in bead-based multiplex ELISA assays using Procarta Cytokine Assay Kits (Panomics) following the manufacturers instructions. The samples were read in a Luminex100 device and analysed with the IS Luminex 2.3 Software using a 5 parameter non-linear regression curve-fitting model.

Experiment [3] deals with plasma cytokines in C57/bl6 mice. Briefly: In vivo assay for suppression of IL-17 (MOG/CFA/PTX immunisation). Also on record: species or system mouse. To be noted: 2×10 mg/(kg×day) i.p., MOG peptide+CFA+PTX immunised mice. The source says:
All animal models that mimic human autoimmune disease suffer from the issue that they are long lasting, require substantial amounts of exploratory drugs and do mostly not allow for monitoring IL-17 production in a simple setup. We therefore developed an in vivo assay based on an immunisation protocol that stems from a typical mouse Experimental Autoimmune Encephalomyelitis (EAE) model. Such EAE models employ the administration of certain autoimmunogenic peptides derived from i.e. Myelin Oligodendrocyte Glycoprotein (MOG) in conjunction with co-administration of a strong immune stimulants such as Complete Freund's Adjuvans (CFA) and a booster for T-cell activation such as Pertussis Toxin (PTX) to induce an autoimmune response. IL-17 producing Th17 cells are elevated under these conditions and about 14-21 days after the immunisation macroscopic signs of CNS inflammation such as impairment of movement become visible.
This immunisation scheme, while disturbing the regular development of macroscopic EAE symptoms in mice, allows for the monitoring of proinflammatory cytokines in plasma, specifically for IL-17, IL-2 and Interferon gamma IFNγ. […]

SMILES strings stand for the structures. Values joined by “and” are separate entries in the source; they are usually repeats but may differ in a detail not shown here. Equal values may be shown once. Bounds are passed on as bounds.

Take `O=S(=O)(c1cccc2cccnc12)N1Cc2ccccc2COC[C@H]1COCC1CCC1` [16/3]: in experiment [1], the IC50 was in the range of 500 to 2000 nM. Moreover, the “effects on Th17-cytokine production in activated human PBMCs (FIG. 2)” value (“effects on Th17-cytokine production” for short) in experiment [2] is recorded as “selective inhibitory effects”.

`O=S(=O)(c1cccc2cccnc12)N1Cc2ccccc2COCC1CC1CCCC1` (stereo not drawn) [1/44]: the IC50 in experiment [1] was less than 500 nM. Also, in experiment [2], the “effects on Th17-cytokine production” value is given as “selective inhibitory effects”. Regarding `COc1ccccc1S(=O)(=O)N1Cc2ccccc2COCC1Cc1ccccc1` (stereo not drawn) [Preparative Example 1, 4-Benzyl-5-(2-methoxyphenylsulfonyl)-3,4,5,6-tetrahydro-1H-benzo[f][1,4]-oxazocine], the IC50 in experiment [1] is less than 500 nM. In experiment [2], the “effects on Th17-cytokine production” value is listed as “selective inhibitory effects”. On to `O=S(=O)(c1cccc2cccnc12)N1Cc2ccccc2COCC1Cc1ccccc1` (stereo not drawn) [1/8], for which the IC50 in experiment [1] was less than 500 nM. Moreover, in experiment [3], the “plasma IFNγ levels (FIG. 1)” value is “increase” and the “plasma IL-17 levels (FIG. 1)” value was “nearly completely reduced”. `CN(C)C(=O)C[C@@H]1COCc2ccccc2CN1S(=O)(=O)c1cccc2cccnc12` [Preparative Example 26, (R)—N,N-Dimethyl-2-(5-(quinolin-8-ylsulfonyl)-3,4,5,6-tetrahydro-1H-benzo[f][1,4]oxazocin-4-yl)acetamide]: in experiment [1], the IC50 was more than 2000 nM. The same measure, in the same setting: the result for `O=S(=O)(c1ccccc1OC(F)(F)F)N1Cc2nccn2CCC[C@H]1Cc1ccccc1` [31/2] reads 500 to 2000 nM. With `CC(C)(C)OC[C@@H]1COCc2ncccc2CN1S(=O)(=O)c1cccc2cccnc12` [6/1], in experiment [1], the IC50 is more than 2000 nM.

In the case of `COc1ccccc1S(=O)(=O)N1Cc2ccccc2CN(C)CC1Cc1ccccc1` (stereo not drawn) [Preparative Example 2, 3-Benzyl-2-(2-methoxyphenylsulfonyl)-5-methyl-1,2,3,4,5,6-hexahydrobenzo-[f][1,4]-diazocine], in experiment [1], the IC50 fell in the range of 500 to 2000 nM.

For `C=CC[C@@H]1COCc2ccccc2CN1S(=O)(=O)c1cccc2cccnc12` [Preparative Example 18, (R)-4-Allyl-5-(quinolin-8-ylsulfonyl)-3,4,5,6-tetrahydro-1H-benzo[f][1,4]oxazocine], the IC50 in experiment [1] fell in the range of 500 to 2000 nM. Still for that read-out and setting: as for `COc1ccccc1S(=O)(=O)N1Cc2ccccc2COC[C@H]1Cc1ccccc1` [1/2], the figure is < 500 nM and > 2000 nM. As for `COc1ccccc1S(=O)(=O)N1Cc2ccccc2COCC1Cc1cccc(-c2cncnc2)c1` (stereo not drawn) [5/5], the IC50 in experiment [1] is more than 2000 nM.

On to `COc1ccc(Cl)cc1S(=O)(=O)N1Cc2ccccc2COCC1Cc1ccccc1` (stereo not drawn) [1/6], for which the IC50 in experiment [1] is less than 500 nM. On to `O=S(=O)(c1cccc2cccnc12)N1Cc2ccccc2COC[C@H]1CC1CC1` [Preparative Example 20, (R)-4-(Cyclopropylmethyl)-5-(quinolin-8-ylsulfonyl)-3,4,5,6-tetrahydro-1H-benzo[f][1,4]oxazocine], for which the IC50 in experiment [1] was less than 500 nM.

On to `CC(C)(C)OC[C@@H]1COCc2ncccc2CN1S(=O)(=O)c1ccccc1OC(F)(F)F` [6/2], for which the IC50 in experiment [1] is less than 500 nM. Still for that read-out and setting: as for `COc1ccccc1S(=O)(=O)N1Cc2ccccc2COCC1Cc1ccc(Br)cc1` (stereo not drawn) [compound 3], the figure is more than 2000 nM; as for `COc1ccccc1S(=O)(=O)N1Cc2ccccc2COCC1CC(C)C` (stereo not drawn) [1/41], 500 to 2000 nM; as for `COC[C@@H]1COCc2ccccc2CN1S(=O)(=O)c1cccc2cccnc12` [Preparative Example 16, (R)-4-(Methoxymethyl)-5-(quinolin-8-ylsulfonyl)-3,4,5,6-tetrahydro-1H-benzo[f][1,4]oxazocine], more than 2000 nM.

`CC(C)(C)OC[C@@H]1COCc2ncccc2CN1S(=O)(=O)c1c(F)cccc1F` [6/4]: the IC50 in experiment [1] was more than 2000 nM. Turning to `O=S(=O)(c1cccc2cccnc12)N1Cc2ccccc2COC[C@H]1Cn1cccn1` [Preparative Example 17, (R)-4-((1H-Pyrazol-1-yl)methyl)-5-(quinolin-8-ylsulfonyl)-3,4,5,6-tetrahydro-1H-benzo[f][1,4]oxazocine], the IC50 in experiment [1] is more than 2000 nM. In the case of `O=S(=O)(c1cccc2cccnc12)N1Cc2ccccc2COC[C@H]1COCC1CC1` [16/4], the IC50 in experiment [1] is 500 to 2000 nM. Further, the “effects on Th17-cytokine production” value in experiment [2] is recorded as “selective inhibitory effects”. On to `CCC(C)CC1COCc2ccccc2CN1S(=O)(=O)c1cccc2cccnc12` (stereo not drawn) [1/43], for which, in experiment [1], the IC50 is less than 500 nM.
